Target: truncated form of human NaV 1.8 with full channel activity (Homo sapiens, UniProt Q9Y5Y9)
Assay: E-VIPR Assay Method A for detecting and measuring Nav inhibition (HEK cells, membrane potential FRET dyes, electrical stimulation)
Assay type: cell-based
Settings: HEK cells expressing human NaV 1.8, HS (human serum) in compound loading buffer, 11 point dose response, top dose 3 μM, Table 20, read-out: Nav 1.8 MedChem Optical Assay EVIPR Assay Method A HS IC50
Procedure, shortened: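 HEK cells expressing truncated human NaV1.8, loaded with CC2-DMPE/DiSBAC6(3) FRET dyes, incubated 30 min at room temp with compound (0.625% DMSO), then electrically stimulated (1.25 A biphasic, 10 Hz, 10 s). Inhibition from 460/580 nm ratio Rf/Ri, normalised to positive and DMSO controls.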

Sequence of truncated form of human NaV 1.8 with full channel activity (Q9Y5Y9 126-1722 limits assumed): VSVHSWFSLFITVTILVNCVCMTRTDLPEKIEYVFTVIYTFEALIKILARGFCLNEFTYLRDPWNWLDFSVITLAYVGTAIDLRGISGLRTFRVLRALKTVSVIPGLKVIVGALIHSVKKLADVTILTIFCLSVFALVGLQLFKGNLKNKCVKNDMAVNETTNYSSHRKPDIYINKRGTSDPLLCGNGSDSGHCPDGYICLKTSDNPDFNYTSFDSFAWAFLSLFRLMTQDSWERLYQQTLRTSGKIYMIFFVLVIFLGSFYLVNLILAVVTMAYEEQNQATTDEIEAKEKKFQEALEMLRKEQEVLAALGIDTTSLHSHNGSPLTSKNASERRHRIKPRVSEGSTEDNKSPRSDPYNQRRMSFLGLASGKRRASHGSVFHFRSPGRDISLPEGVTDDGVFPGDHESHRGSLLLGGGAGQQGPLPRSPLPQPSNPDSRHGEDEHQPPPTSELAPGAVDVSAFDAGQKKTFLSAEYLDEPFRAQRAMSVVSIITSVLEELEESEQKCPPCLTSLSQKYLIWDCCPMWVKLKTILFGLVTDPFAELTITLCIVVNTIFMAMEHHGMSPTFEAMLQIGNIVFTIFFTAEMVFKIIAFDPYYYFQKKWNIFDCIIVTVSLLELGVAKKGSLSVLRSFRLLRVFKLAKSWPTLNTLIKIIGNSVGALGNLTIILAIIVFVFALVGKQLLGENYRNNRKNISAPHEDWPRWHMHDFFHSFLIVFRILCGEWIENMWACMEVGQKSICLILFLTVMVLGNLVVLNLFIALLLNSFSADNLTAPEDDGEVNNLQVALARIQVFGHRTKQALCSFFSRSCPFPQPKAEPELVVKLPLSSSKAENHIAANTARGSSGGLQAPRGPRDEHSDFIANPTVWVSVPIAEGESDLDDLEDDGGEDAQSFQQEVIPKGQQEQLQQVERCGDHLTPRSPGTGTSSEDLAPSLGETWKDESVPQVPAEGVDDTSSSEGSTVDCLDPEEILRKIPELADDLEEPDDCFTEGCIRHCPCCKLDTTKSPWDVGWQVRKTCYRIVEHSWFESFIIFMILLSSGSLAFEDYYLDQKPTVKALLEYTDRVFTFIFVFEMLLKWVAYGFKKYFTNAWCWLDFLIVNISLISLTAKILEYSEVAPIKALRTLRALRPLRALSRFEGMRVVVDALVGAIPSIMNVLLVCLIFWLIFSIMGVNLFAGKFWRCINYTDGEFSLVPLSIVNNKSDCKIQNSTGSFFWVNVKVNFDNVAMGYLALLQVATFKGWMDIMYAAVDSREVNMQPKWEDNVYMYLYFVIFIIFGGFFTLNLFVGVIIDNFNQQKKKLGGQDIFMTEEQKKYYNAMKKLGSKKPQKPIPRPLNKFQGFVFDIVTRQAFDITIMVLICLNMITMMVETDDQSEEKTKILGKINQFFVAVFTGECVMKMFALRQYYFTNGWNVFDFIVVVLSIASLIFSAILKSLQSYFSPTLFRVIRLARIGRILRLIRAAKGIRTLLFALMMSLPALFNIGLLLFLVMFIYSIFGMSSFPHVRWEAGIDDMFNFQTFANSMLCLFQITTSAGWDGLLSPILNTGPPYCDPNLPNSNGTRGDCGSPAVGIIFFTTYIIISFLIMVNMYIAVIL

IC50 [nM] | SMILES
1 | COc1cc(OC(F)(F)F)ccc1Oc1ccc(C(F)(F)F)c(F)c1C(=O)Nc1ccc(F)c(C(N)=O)c1 [Compound 2, N-(3-carbamoyl-4-fluoro-phenyl)-2-fluoro-6-[2-methoxy-4-(trifluoromethoxy)phenoxy]-3-(trifluoromethyl)benzamide]
4 | COc1cc(OC(F)(F)F)ccc1Oc1cnc(C(F)(F)F)c(F)c1C(=O)Nc1ccnc(C(N)=O)c1 [Compound 12, N-(2-Carbamoyl-4-pyridyl)-3-fluoro-5-[2-methoxy-4-(trifluoromethoxy)phenoxy]-2-(trifluoromethyl)pyridine-4-carboxamide]

Same assay, conditions: HEK cells expressing human NaV 1.8, HS (human serum) in compound loading buffer, 11 point dose response, top dose 3 μM, Table 20A, read-out: Nav 1.8 MedChem Optical Assay EVIPR Assay Method A HS IC50

IC50 [nM] | SMILES
88 | [2H]C([2H])([2H])Oc1cc(OC(F)(F)F)ccc1Oc1cc(OC(F)F)cc(F)c1C(=O)Nc1ccc(C(N)=O)nc1 [Compound 174, 5-[[4-(Difluoromethoxy)-2-fluoro-6-[2-(trideuteriomethoxy)-4-(trifluoromethoxy)phenoxy]benzoyl]amino]pyridine-2-carboxamide]
32 | NC(=O)c1cc(NC(=O)c2c(Oc3ccc(OC(F)(F)F)cc3)ccc3c2CCC3(F)F)ccc1F [Compound 190, N-(3-Carbamoyl-4-fluoro-phenyl)-1,1-difluoro-5-[4-(trifluoromethoxy)phenoxy]indane-4-carboxamide]
215 | NC(=O)c1cc(NC(=O)c2cnc(C3CC3)cc2Oc2ccc(OC(F)(F)F)c(Cl)c2)ccc1F [Compound 36, N-(3-Carbamoyl-4-fluoro-phenyl)-4-[3-chloro-4-(trifluoromethoxy)phenoxy]-6-cyclopropyl-pyridine-3-carboxamide]
560 | Cc1cc(F)ccc1Oc1cccc(C(F)(F)F)c1C(=O)Nc1ccc(F)c(C(N)=O)c1 [Compound 41, N-(3-Carbamoyl-4-fluoro-phenyl)-2-(4-fluoro-2-methyl-phenoxy)-6-(trifluoromethyl)benzamide]
21 | COc1cc(OC(F)(F)F)ccc1Oc1cnc(C(F)(F)F)c(F)c1C(=O)Nc1ccc(C(N)=O)nc1 [Compound 194, N-(6-carbamoyl-3-pyridyl)-3-fluoro-5-[2-methoxy-4-(trifluoromethoxy)phenoxy]-2-(trifluoromethyl)pyridine-4-carboxamide]
48 | COc1cc(OC(F)(F)F)ccc1Oc1cc(C2(C(F)(F)F)CC2)ncc1C(=O)Nc1ccnc(C(N)=O)c1 [Compound 119, N-(2-Carbamoyl-4-pyridyl)-4-[2-methoxy-4-(trifluoromethoxy)phenoxy]-6-[1-(trifluoromethyl)cyclopropyl]pyridine-3-carboxamide]
600 | COc1cc(OC(F)(F)F)ccc1Oc1cc(Cl)cc(OC)c1C(=O)Nc1ccc(C(N)=O)nc1 [Compound 204, 5-[[4-Chloro-2-methoxy-6-[2-methoxy-4-(trifluoromethoxy)phenoxy]benzoyl]amino]pyridine-2-carboxamide]
22 | COc1cc(OC(F)(F)F)ccc1Oc1cc(C(F)(F)F)cc(F)c1C(=O)Nc1cc(C(N)=O)ncc1C [Compound 153, 4-[[2-Fluoro-6-[2-methoxy-4-(trifluoromethoxy)phenoxy]-4-(trifluoromethyl)benzoyl]amino]-5-methyl-pyridine-2-carboxamide]
560 | NC(=O)c1cc(NC(=O)c2cc(OC(F)(F)F)ccc2Oc2ccc(OC(F)(F)F)cc2)ccn1 [Compound 156, 4-[[5-(Trifluoromethoxy)-2-[4-(trifluoromethoxy)phenoxy]benzoyl]amino]pyridine-2-carboxamide]
42 | COc1nc(Cl)ccc1Oc1ccc(C(F)(F)F)c(F)c1C(=O)Nc1ccc(C(N)=O)c(F)c1 [Compound 67, N-(4-carbamoyl-3-fluoro-phenyl)-6-[(6-chloro-2-methoxy-3-pyridyl)oxy]-2-fluoro-3-(trifluoromethyl)benzamide]
2 | [2H]C([2H])([2H])Oc1c(Oc2ccc(C(F)(F)F)c(F)c2C(=O)Nc2ccnc(C(N)=O)c2)ccc(OC(F)(F)F)c1F [Compound 218, 4-[[2-Fluoro-6-[3-fluoro-2-(trideuteriomethoxy)-4-(trifluoromethoxy)phenoxy]-3-(trifluoromethyl)benzoyl]amino]pyridine-2-carboxamide]

— patent US12281057B2 (VERTEX PHARMACEUTICALS INCORPORATED, priority 2017, dated 2025)
